From patent US7842808B2, “Anti-migraine spirocycles” (Bristol-Myers Squibb Company, priority 2002, dated 2010)

These molecules were tested against T1, CGRP receptor (SK-N-MC cell membranes) (Homo sapiens, UniProt O60894+Q16602) (assay: CGRP Binding Assay ([125I]-CGRP radioligand binding, SK-N-MC homogenate)). Conditions: displacement of [125I]-CGRP, SK-N-MC homogenate; read-out: CGRP binding IC50.
T1 construct: endogenous in cells; host or cells: SK-N-MC cells (membrane homogenate)
T1 sequence (Q16602 23-461): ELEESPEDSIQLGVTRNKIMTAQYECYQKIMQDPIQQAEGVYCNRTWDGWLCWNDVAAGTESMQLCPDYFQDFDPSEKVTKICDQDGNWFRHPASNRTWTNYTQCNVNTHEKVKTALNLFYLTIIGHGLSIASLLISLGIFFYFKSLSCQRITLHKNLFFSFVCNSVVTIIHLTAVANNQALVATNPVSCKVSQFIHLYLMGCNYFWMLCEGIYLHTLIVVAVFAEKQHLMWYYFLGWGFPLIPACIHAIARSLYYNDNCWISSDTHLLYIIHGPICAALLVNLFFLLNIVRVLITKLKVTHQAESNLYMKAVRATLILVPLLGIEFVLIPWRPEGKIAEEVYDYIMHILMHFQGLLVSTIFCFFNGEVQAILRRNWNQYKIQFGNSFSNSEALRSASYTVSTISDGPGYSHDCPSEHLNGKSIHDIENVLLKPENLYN
T1 sequence (O60894 27-148): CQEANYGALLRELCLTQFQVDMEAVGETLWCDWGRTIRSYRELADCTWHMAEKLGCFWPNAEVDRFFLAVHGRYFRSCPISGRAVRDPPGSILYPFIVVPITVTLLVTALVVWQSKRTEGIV

Q: For `O=C(C[C@H](Nc1nc(Cl)nc2[nH]cnc12)C(=O)N1CCC(N2CCCCC2)CC1)N1CCC(N2Cc3ccccc3NC2=O)CC1` [Example 89, (L)-1-[1,4′]Bipiperidinyl-1′-yl-2-(2-chloro-9H-purin-6-ylamino)-4-[4-(2-oxo-1,4-dihydro-2H-quinazolin-3-yl)-piperidin-1-yl]-butane-1,4-dione], which IC50 is on record?
A: 100 to 1000 nM

Q: With `O=C(C[C@H](NCc1ccc2[nH]ncc2c1)C(=O)N1CCC(N2CCCCC2)CC1)N1CCC(N2Cc3ccccc3NC2=O)CC1` [Example 94, (L)-1-[1,4′]Bipiperidinyl-1′-yl-2-((5′-indazolyl)-methyl-amino)-4-[4-(2-oxo-1,4-dihydro-2H-quinazolin-3-yl)-piperidin-1-yl]-butane-1,4-dione] as the molecule, how does the IC50 read?
A: 100 to 1000 nM

Q: How did the IC50 turn out when `O=C(NC(Cc1ccc2[nH]ncc2c1)C(=O)N1CCC(N2Cc3ccccc3NC2=O)CC1)N1CCC(N2Cc3ccccc3NC2=O)CC1` (centres unmarked) [Example 37, 4-(2-Oxo-1,4-dihydro-2H-quinazolin-3-yl)-piperidine-1-carboxylic acid{1-(1H-indazol-5-ylmethyl)-2-oxo-2-[4-(2-oxo-1,4-dihydro-2H-quinazolin-3-yl)-piperidin-1-yl]-ethyl}-amide] was run?
A: < 10 nM

Q: For `O=C(NC(Cc1ccc2[nH]ncc2c1)C(=O)N1CCNCC1)N1CCC(N2Cc3ccccc3NC2=O)CC1` (centres unmarked) [Example 39, 4-(2-Oxo-1,4-dihydro-2H-quinazolin-3-yl)-piperidine-1-carboxylic acid[1-(1H-indazol-5-ylmethyl)-2-oxo-2-piperazin-1-yl-ethyl]-amide], which IC50 is on record?
A: 100 to 1000 nM

Q: Which IC50 does the source give for `O=C(NC(Cc1ccc2[nH]ncc2c1)C(=O)N1CCC2(CC1)OCCO2)N1CCC(N2Cc3ccccc3NC2=O)CC1` (racemic) [Example 11, (±)-4-(2-Oxo-1,4-dihydro-2H-quinazolin-3-yl)-piperidine-1-carboxylic acid[2-(1,4-dioxa-8-aza-spiro[4.5]dec-8-yl)-1-(1H-indazol-5-ylmethyl)-2-oxo-ethyl]-amide] here?
A: 10 to 100 nM

Q: Which IC50 does the source give for `O=C(Nc1ccc(-c2ccccc2)cc1)N[C@@H](CC(=O)N1CCC(N2Cc3ccccc3NC2=O)CC1)C(=O)N1CCC(N2CCCCC2)CC1` [Example 144] here?
A: 100 to 1000 nM

Q: Which IC50 does the source give for `Cc1cc(CC(NC(=O)N2CCC(N3Cc4ccccc4NC3=O)CC2)C(=O)O[C@@H](C)c2ccncc2)cc2cn[nH]c12` (stereo partly drawn) [Example 41f, 3-(7-Methyl-1H-indazol-5-yl)-2-{[4-(2-oxo-1,4-dihydro-2H-quinazolin-3-yl)-piperidine-1-carbonyl]-amino}-propionic acid(S)-1-pyridin-4-yl-ethyl ester] here?
A: 10 to 100 nM

Q: How did the IC50 turn out when `COC(=O)C(Cc1cc(Cl)c2[nH]ncc2c1)NC(=O)N1CCC(N2Cc3ccccc3NC2=O)CC1` (racemic) [Example 42, (±)-3-(7-Chloro-1H-indazol-5-yl)-2-{[4-(2-oxo-1,4-dihydro-2H-quinazolin-3-yl)-piperidine-1-carbonyl]-amino}-propionic acid methyl ester] was run?
A: 100 to 1000 nM

Q: `O=C(Nc1cc(Cl)cc(Cl)c1)N[C@@H](CC(=O)N1CCC(N2Cc3ccccc3NC2=O)CC1)C(=O)N1CCC(N2CCCCC2)CC1` [Example 159] was tested. Which IC50 did it give?
A: 10 to 100 nM

Q: For `O=C(C[C@H](Nc1ccncn1)C(=O)N1CCC(N2CCCCC2)CC1)N1CCC(N2Cc3ccccc3NC2=O)CC1` [Example 96, (L)-1-[1,4′]Bipiperidinyl-1′-yl-4-[4-(2-oxo-1,4-dihydro-2H-quinazolin-3-yl)-piperidin-1-yl]-2-(pyrimidin-4-ylamino)-butane-1,4-dione], which IC50 is on record?
A: > 1000 nM

Q: For `O=C(Nc1cccc(Br)c1)N[C@@H](CC(=O)N1CCC(N2Cc3ccccc3NC2=O)CC1)C(=O)N1CCC(N2CCCCC2)CC1` [Example 176], which IC50 is on record?
A: 10 to 100 nM

Q: How did the IC50 turn out when `CN1CCN(C(=O)C(Cc2ccc3[nH]ncc3c2)NC(=O)N2CCC(N3Cc4ccccc4NC3=O)CC2)CC1` (centres unmarked) [Example 40k] was run?
A: > 1000 nM

Q: Which IC50 does the source give for `COC(=O)[C@@H](Cc1ccc2[nH]nnc2c1)NC(=O)N1CCC(N2Cc3ccccc3NC2=O)CC1` [Example 48, (R)-3-(1H-Benzotriazol-5-yl)-2-{[4-(2-oxo-1,4-dihydro-2H-quinazolin-3-yl)-piperidine-1-carbonyl]-amino}-propionic acid methyl ester] here?
A: > 1000 nM

Q: With `CCCCCCCN1CCN(C(=O)C(Cc2ccc3[nH]ncc3c2)NC(=O)N2CCC(N3Cc4ccccc4NC3=O)CC2)CC1` (centres unmarked) [Example 40b] as the molecule, how does the IC50 read?
A: 10 to 100 nM

Q: How did the IC50 turn out when `O=C(Cc1ccccc1)N[C@@H](CC(=O)N1CCC(N2Cc3ccccc3NC2=O)CC1)C(=O)N1CCC(N2CCCCC2)CC1` [Example 106] was run?
A: 100 to 1000 nM

Q: For `O=C(C[C@H](NCc1c[nH]cn1)C(=O)N1CCC(N2CCCCC2)CC1)N1CCC(N2Cc3ccccc3NC2=O)CC1` [Example 98, (L)-1-[1,4′]Bipiperidinyl-1′-yl-2-[(1H-imidazol-4-ylmethyl)-amino]-4-[4-(2-oxo-1,4-dihydro-2H-quinazolin-3-yl)-piperidin-1-yl]-butane-1,4-dione], which IC50 is on record?
A: > 1000 nM

Q: With `O=C(N[C@@H](CC(=O)N1CCC(N2Cc3ccccc3NC2=O)CC1)C(=O)N1CCC(N2CCCCC2)CC1)c1ccc(Br)cc1` [Example 119] as the molecule, how does the IC50 read?
A: 100 to 1000 nM

Q: How did the IC50 turn out when `Cc1ccc(NC(=O)N[C@@H](CC(=O)N2CCC(N3Cc4ccccc4NC3=O)CC2)C(=O)N2CCC(N3CCCCC3)CC2)cc1Cl` [Example 186] was run?
A: 100 to 1000 nM

Q: Which IC50 does the source give for `O=C(N[C@@H](CC(=O)N1CCC(N2Cc3ccccc3NC2=O)CC1)C(=O)N1CCC(N2CCCCC2)CC1)c1ccc([N+](=O)[O-])o1` [Example 124] here?
A: 100 to 1000 nM

Q: Which IC50 does the source give for `O=C(N[C@@H](CC(=O)N1CCC(N2Cc3ccccc3NC2=O)CC1)C(=O)N1CCC(N2CCCCC2)CC1)c1cc(Cl)cc(Cl)c1` [Example 108] here?
A: 100 to 1000 nM

Q: How did the IC50 turn out when `O=C(C[C@H](NCc1ccccn1)C(=O)N1CCC(N2CCCCC2)CC1)N1CCC(N2Cc3ccccc3NC2=O)CC1` [Example 93, (L)-1-[1,4′]Bipiperidinyl-1′-yl-2-((2′-pyridyl)-methyl-amino)-4-[4-(2-oxo-1,4-dihydro-2H-quinazolin-3-yl)-piperidin-1-yl]-butane-1,4-dione] was run?
A: 100 to 1000 nM

Q: `COc1ccc(CC(=O)N[C@@H](CC(=O)N2CCC(N3Cc4ccccc4NC3=O)CC2)C(=O)N2CCC(N3CCCCC3)CC2)cc1OC` [Example 109] was tested. Which IC50 did it give?
A: 100 to 1000 nM

Q: With `O=C(N[C@@H](CC(=O)N1CCC(N2Cc3ccccc3NC2=O)CC1)C(=O)N1CCC(N2CCCCC2)CC1)c1ccc2c(c1)OCO2` [Example 114] as the molecule, how does the IC50 read?
A: 100 to 1000 nM

Q: With `O=C(N[C@H](Cc1ccc2nn[nH]c2c1)C(=O)N1CCC(N2CCCCC2)CC1)N1CCC(N2Cc3ccccc3NC2=O)CC1` [Example 49, (R)-4-(2-Oxo-1,4-dihydro-2H-quinazolin-3-yl)-piperidine-1-carboxylic acid[1-(1H-benzotriazol-5-ylmethyl)-2-[1,4′]bipiperidinyl-1′-yl-2-oxo-ethyl]-amide] as the molecule, how does the IC50 read?
A: < 10 nM

Q: For `Cc1cc(CC(NC(=O)N2CCC3(CC2)OC(=O)Nc2ccccc23)C(=O)N2CCN(c3ccncc3)CC2)cc2cn[nH]c12` (racemic) [Example 29, (±)-1′,2′-Dihydro-2′-oxospiro-[4H-3′,1-benzoxazine-4,4′-piperidine-1-carboxylic acid[1-(7-methyl-1H-indazol-5-ylmethyl)-2-oxo-2-(4-pyridin-4-yl-piperazin-1-yl)-ethyl]-amide], which IC50 is on record?
A: < 10 nM

Q: `CN(C)/C=C/CN1CCN(C(=O)C(Cc2ccc3[nH]ncc3c2)NC(=O)N2CCC(N3Cc4ccccc4NC3=O)CC2)CC1` (centres unmarked) [Example 40h] was tested. Which IC50 did it give?
A: > 1000 nM

Q: With `COc1ccc(NC(=O)N[C@@H](CC(=O)N2CCC(N3Cc4ccccc4NC3=O)CC2)C(=O)N2CCC(N3CCCCC3)CC2)cc1` [Example 181] as the molecule, how does the IC50 read?
A: 100 to 1000 nM

Q: For `O=C(N[C@@H](CC(=O)N1CCC(N2Cc3ccccc3NC2=O)CC1)C(=O)N1CCC(N2CCCCC2)CC1)c1sc2ccccc2c1Cl` [Example 125], which IC50 is on record?
A: 100 to 1000 nM

Q: Which IC50 does the source give for `O=C(C[C@H](NC(=O)n1c2ccccc2c2ccccc21)C(=O)N1CCC(N2CCCCC2)CC1)N1CCC(N2Cc3ccccc3NC2=O)CC1` [Example 115] here?
A: 100 to 1000 nM

Q: `O=C(N[C@@H](CC(=O)N1CCC(N2Cc3ccccc3NC2=O)CC1)C(=O)N1CCC(N2CCCCC2)CC1)c1ccc(Cl)c(Cl)c1` [Example 111] was tested. Which IC50 did it give?
A: 100 to 1000 nM

Q: How did the IC50 turn out when `O=C(Nc1ccc(Cl)cc1Cl)N[C@@H](CC(=O)N1CCC(N2Cc3ccccc3NC2=O)CC1)C(=O)N1CCC(N2CCCCC2)CC1` [Example 161] was run?
A: 10 to 100 nM

Q: `O=C(Nc1ccc(Cl)cc1)N[C@@H](CC(=O)N1CCC(N2Cc3ccccc3NC2=O)CC1)C(=O)N1CCC(N2CCCCC2)CC1` [Example 140] was tested. Which IC50 did it give?
A: 10 to 100 nM

Q: With `O=C(NC(Cc1ccc2[nH]ncc2c1)C(=O)N1CCN(Cc2ccco2)CC1)N1CCC(N2Cc3ccccc3NC2=O)CC1` (centres unmarked) [Example 40e] as the molecule, how does the IC50 read?
A: > 1000 nM

Q: For `O=C(Nc1cc(C(F)(F)F)ccc1Cl)N[C@@H](CC(=O)N1CCC(N2Cc3ccccc3NC2=O)CC1)C(=O)N1CCC(N2CCCCC2)CC1` [Example 167], which IC50 is on record?
A: 100 to 1000 nM

Q: With `O=C(NC(CN1CCC(O)CC1)C(=O)N1CCC(N2CCCCC2)CC1)N1CCC(N2Cc3ccccc3NC2=O)CC1` (racemic) [Example 53, (±)-4-(2-Oxo-1,4-dihydro-2H-quinazolin-3-yl)-piperidine-1-carboxylic acid[2-[1,4′]bipiperidinyl-1′-yl-1-(4-hydroxy-piperidin-1-ylmethyl)-2-oxo-ethyl]-amide] as the molecule, how does the IC50 read?
A: > 1000 nM

Q: For `O=C(N[C@@H](CC(=O)N1CCC(N2Cc3ccccc3NC2=O)CC1)C(=O)N1CCC(N2CCCCC2)CC1)c1ccccc1` [Example 110], which IC50 is on record?
A: 100 to 1000 nM

Each molecule was assayed against T2, human CGRP receptor (SK-N-MC cells) (Homo sapiens, UniProt O60894+Q16602) (assay: Cyclic AMP Assay, functional antagonism of CGRP-induced cyclic AMP formation). Conditions: not given.
T2 construct: SK-N-MC cells that endogenously express the human CGRP receptor; endogenous in cells; host or cells: SK-N-MC cells
Assay type: cell-based
Protocol: Functional Antagonism. Antagonism of the compounds of invention was determined by measuring the formation of cyclic AMP (adenosine 3′5′-cyclic monophosphate) in SK-N-MC cells that endogenously express the human CGRP receptor. […] For cyclic AMP measurements SK-N-MC cells were incubated with 0.3 nM CGRP alone or in the presence of various concentrations of the compounds of invention for 30 min at room temperature. […] Cyclic AMP was extracted using the lysis reagent and its concentration was determined by radioimmunoassay using RPA559 cAMP SPA Direct Screening Assay Kit (Amersham Pharmacia Biotech). IC50 values were calculated using Excel fit.

T2 sequence (Q16602 23-461): as the sequence (Q16602 23-461) above
T2 sequence (O60894 27-148): as the sequence (O60894 27-148) above

Q: Which IC50 does the source give for `O=C(NC(Cc1ccc2[nH]ncc2c1)C(=O)N1CCC2(CC1)OCCO2)N1CCC(N2Cc3ccccc3NC2=O)CC1` (racemic) [Example 11, (±)-4-(2-Oxo-1,4-dihydro-2H-quinazolin-3-yl)-piperidine-1-carboxylic acid[2-(1,4-dioxa-8-aza-spiro[4.5]dec-8-yl)-1-(1H-indazol-5-ylmethyl)-2-oxo-ethyl]-amide] here?
A: 10 to 100 nM

Same assay, conditions: SK-N-MC cells, 0.3 nM CGRP; read-out: cAMP Function IC50

Q: For `O=C(C[C@H](Nc1nc(Cl)nc2[nH]cnc12)C(=O)N1CCC(N2CCCCC2)CC1)N1CCC(N2Cc3ccccc3NC2=O)CC1` [Example 89, (L)-1-[1,4′]Bipiperidinyl-1′-yl-2-(2-chloro-9H-purin-6-ylamino)-4-[4-(2-oxo-1,4-dihydro-2H-quinazolin-3-yl)-piperidin-1-yl]-butane-1,4-dione], which IC50 is on record?
A: 10 to 100 nM

Q: Which IC50 does the source give for `O=C(C[C@H](NCc1ccc2[nH]ncc2c1)C(=O)N1CCC(N2CCCCC2)CC1)N1CCC(N2Cc3ccccc3NC2=O)CC1` [Example 94, (L)-1-[1,4′]Bipiperidinyl-1′-yl-2-((5′-indazolyl)-methyl-amino)-4-[4-(2-oxo-1,4-dihydro-2H-quinazolin-3-yl)-piperidin-1-yl]-butane-1,4-dione] here?
A: 100 to 1000 nM

Q: How did the IC50 turn out when `O=C(NC(Cc1ccc2[nH]ncc2c1)C(=O)N1CCC(N2Cc3ccccc3NC2=O)CC1)N1CCC(N2Cc3ccccc3NC2=O)CC1` (centres unmarked) [Example 37, 4-(2-Oxo-1,4-dihydro-2H-quinazolin-3-yl)-piperidine-1-carboxylic acid{1-(1H-indazol-5-ylmethyl)-2-oxo-2-[4-(2-oxo-1,4-dihydro-2H-quinazolin-3-yl)-piperidin-1-yl]-ethyl}-amide] was run?
A: 10 to 100 nM

Q: With `O=C(NC(Cc1ccc2[nH]ncc2c1)C(=O)N1CCNCC1)N1CCC(N2Cc3ccccc3NC2=O)CC1` (centres unmarked) [Example 39, 4-(2-Oxo-1,4-dihydro-2H-quinazolin-3-yl)-piperidine-1-carboxylic acid[1-(1H-indazol-5-ylmethyl)-2-oxo-2-piperazin-1-yl-ethyl]-amide] as the molecule, how does the IC50 read?
A: 100 to 1000 nM
